Data reported in patent US20240167037A1, “CANCER THERAPY” (NATIONAL UNIVERSITY CORPORATION KOBE UNIVERSITY, priority 2021, published 2024).

Key:
Assay type in all cases: cell-based, human
MDA-MB-231 cells [1] = experiment: In vitro invasion assay (BioCoat Matrigel Invasion Chambers); conditions: MβCD 4 mM, calyculin A 0.5 nM; drugs added in both sides; 24 h; FIG. 10b
Method: In vitro invasion and migration assays. For invasion and migration assays, we used BioCoat Matrigel Invasion Chambers (Corning) and 8.0 μm PET trans-migration inserts (Corning), respectively. In the invasion assay, 1×10^5 cells were suspended in serum-free medium and seeded on top of the chamber's membrane, in which medium containing serum was placed at the bottom. For MβCD or calyculin A treatment, drugs were added in both sides. Low-invasive epithelial (MCF10A, AU565, and MCF7) cells and MDA-MB-231 cells were incubated for 36 h and 24 h, respectively, and then fixed in 4% formaldehyde. Invaded cells were imaged using a BZ-X700 microscope (Keyence) with 10× magnification and counted. In the migration assay, 5×10^4 cells were seeded on top of the PET membrane, incubated for 24 h, and analyzed as described for the invasion assay. For the quantification of invasive structures grown in 3D on-top culture (FIGS. 5a and b), the elongated mesenchymal-like and rounded morphologies were defined as invasive and non-invasive phenotypes, respectively, and quantified.

MDA-MB-231 cells [2] = experiment: Tether force measurement with optical tweezers and estimation of PM tension; conditions: MβCD 4 mM vs mock (FIG. 10c), MA-ezrin expression vs parental (FIG. 4a)
Method: Tether force measurement with optical tweezers and the estimation of PM tension. Tether force measurements were performed with an optical tweezers system (NanoTracker™ 2, JPK Instruments) equipped with an infrared (IR) laser source (3 W, 1064 nm) on an Olympus IX-73 inverted microscope with a 60×(numerical aperture=1.2) water immersion objective (Olympus). Silica beads (1.5 μm diameter, Polysciences) were incubated with concanavalin A (Sigma-Aldrich) at 1 mg/ml for 1 h. Cells were plated onto glass-bottom dishes (WPI). Coated beads were added to the cell culture medium supplemented with 25 mM HEPES (pH 7.5), and experiments were performed at 37° C. Tether force (F) can be calculated using Hooke's law: F=kΔx, where k is the stiffness of the trap and Δx is the displacement of the bead from the trap center. […] The displacement of the bead in the trap center (Δx) was determined by a quadrant photodiode detector with high precision (the resolution less than 1 nm). […] To compare PM tension between non-motile epithelial cells and malignant cells, we measured the tethering force on the lateral sides of cells. […]
PM tension can be estimated with the following formula: T=Ftether^2/8Bπ^2, where T is the apparent plasma membrane tension (PM tension), Ftether is the tether force measured by optical tweezers, and B is the bending stiffness of the membrane. […]

[3] = system: GFP-FBP17 in MDA-MB-231 cells; experiment: Confocal quantification of GFP-FBP17 puncta at the plasma membrane; conditions: FIG. 5g, 11c, 11e
Method: Confocal microscopy, live-cell imaging, and image analysis. For immunofluorescence analysis, cells were fixed with 4% formaldehyde in phosphate-buffered saline (PBS) for 10 min and permeabilized with 0.2% Triton X-100 for 10 min in PBS. Cells were blocked with 5% goat serum (Sigma-Aldrich) in PBS for 1 h and were incubated with primary antibodies for at least 3 h. Then, cells were incubated with secondary antibodies for 1 h. For membrane visualization, Alexa Fluor™ 350 conjugated wheat germ agglutinin (WGA) (Thermo Scientific) was incubated with fixed cells for 30 min before permeabilization. For visualization of F-actin, Alexa Fluor™ 568 Phalloidin (Thermo Scientific) was incubated with fixed cells for 30 min. Fluorescence images were captured using a confocal microscopy system (FluoView 1000-D; Olympus) equipped with 405-, 473-, and 568-nm diode lasers through an objective lens (60× oil immersion objective, NA=1.35). […] The aspect ratio was determined as a ratio of the major cell axis length to minor cell axis length, which was calculated automatically by Image J. We observed that elongated cells typically have an aspect ratio of 5-8, whereas that of amoeboid cells is 2-3. […] The mean intensity of pERM or F-actin all along the membrane regions was then calculated and divided by their mean intensities throughout the cytosol (avoiding the nucleus). […]

| Compound | invasive ability (drug-treated cells that invaded through Matrigel) (MDA-MB-231 cells [1]) | PM tension (estimated from tether force) (MDA-MB-231 cells [2]) | recruitment / accumulation of GFP-FBP17 at the PM [3] |
| --- | --- | --- | --- |
| COC[C@@H]([C@H](O)[C@H](O)C(=O)NCC[C@H](C)c1nc(/C=C/C[C@@H]2O[C@]3(C[C@@H](O)[C@@H]2C)O[C@H]([C@H](C[C@H](O)[C@H](C)[C@H](O)[C@H](C)/C=C(C)/C(C)=C/C=C/C(C)=C\C#N)OC)[C@H](OP(=O)(O)O)C3(C)C)co1)N(C)C [calyculin A] | no effect |  |  |
| methyl-β-cyclodextrin [MβCD] | significantly reduced | increases | sufficient to prevent |
